Columns and labels:
CD4 T cell = experiment: Cytotoxicity / viability of CD4 T cells in proliferation assay; format: cell-based, human; conditions: 4 days, decreased cell viability (gray boxes in Fig. 2)
Experimental: (§1) Figure 2. […] CD4 T cell proliferation was assessed upon stimulation with anti-CD3ϵ by CFSE dilution as a measure for cellular proliferation, analyzed on day 4. For rapamycin and AX-024–treated cells, the dashed line indicates control proliferation at a DMSO concentration of 0.2%. For CD3ϵ-derived peptides 11Rwt, 11R085, and 11Rscr, the dashed line indicates control proliferation at 0.3% DMSO, 0.3% PBS. 11Rwt has sequence R11-G3-[…], 11R085 R11-G3-Q(dK)[…], and 11Rscr R11-G3-[…](dK)PQP. A polyarginine tag is used to enable cell penetration of the peptides ([10]). The gray boxes indicate concentrations of compound leading to decreased cell viability. These values should be disregarded. Binding of peptides 11Rwt and 11R085, but not 11Rscr, to Nck-SH3.1 was confirmed by NMR spectroscopy (Fig. S1). Asterisks, p < 0.05 as determined by a repeated-measure one-way analysis of variance with Holm–Sidak's multiple-comparison test to DMSO/PBS. Dotted lines, mean DMSO/PBS values. Error bars, S.D.
(§2) Fresh human peripheral blood mononuclear cells (PBMCs) from healthy donors (n = 4) were prepared from buffy coats. CD3^+ T cells were isolated by immunomagnetic separation (negative selection, StemCell, lot 18A87710), carboxyfluorescein succinimidyl ester (CFSE)-labeled, resuspended in StemCell Immunocult^TM-XF T cell expansion medium, and treated with compounds or vehicle for 2 h at room temperature. The isolated CD3^+ T cells were stained for CD3, CD4, and CD8, and their purity was assessed by flow cytometry. Cells were then cultured in a 96-well flat-bottomed plate (10^5 cells/well), precoated for 1 h at 37 °C with 0.2 μg·ml^−1 plate-bound anti-CD3 (clone OKT3, BioLegend). […] Cells were cultured in the presence of AX-024, rapamycin, peptide 11Rwt, peptide 11R85, peptide 11Rscr (derived from Ref. [11]; see below for sequences), or vehicle for 4 days. At the end of culture, cells were stained for viability, and CFSE dilution was assessed by flow cytometry (with gating on CD4 versus CD8).

Nck1-SH3.1 [1] = molecular target: T1, Nck1-SH3.1 (Homo sapiens, UniProt P16333); experiment: NMR binding of poly-Arg CD3ϵ-derived peptides to Nck1-SH3.1; conditions: Fig. S1
T1 construct: His10-Avi-TEV-Nck1-SH3.1 (residues 1–61, MM 11,847 Da) was biotinylated and immobilized via streptavidin; made in house; host or cells: Escherichia coli BL21 (DE3)
Experimental: NMR spectra were recorded on a Bruker 600-MHz Avance NEO spectrometer equipped with a cryogenic QCI probe head at 27 °C in 25 mM […], 150 mM NaCl. The Topspin 4.0 software (Bruker, Fällanden) was used for spectrometer operation and data processing. For ^1H ligand-observed measurements, a relaxation filtered pulse sequence utilizing a spinlock of 50 ms was applied. 1D spectra were acquired with 128 scans, a sweep width of 26 ppm, and an acquisition time of 2 s. 2D ^1H-^15N HSQC spectra with natural ^15N isotope abundance were recorded over 72 h with a spectral width of 16 ppm and 35 ppm in the proton and nitrogen dimensions, respectively, with 256 increments (complex) and 1000 scans per increment. A relaxation delay of 1 s was used between scans. For the DOSY measurements (reviewed in Ref. [51]), the Bruker pulse sequence ledbpgp2s with a diffusion delay of 50 ms and a gradient length of 600 μs was used. The gradient strength was varied from 5 to 95% to record 16 increments of 512 scans with a sweep width of 18 ppm and a relaxation delay of 1 s.
Samples for ligand-observed measurements were prepared in 25 mM sodium phosphate buffer, pH 6.5, 150 mM NaCl. One sample contained 50 μM AX-024, and the other contained 50 μM CD3ϵ peptide.

CD4 T cell proliferation = CD4 T cell proliferation by CFSE dilution, anti-CD3 stimulation; format: cell-based, human; conditions: concentrations up to 1 μM; anti-CD3, CFSE dilution, day 4, 0.3% DMSO/0.3% PBS control
Experimental: as §1, §2

CD8 T cell proliferation = CD8 T cell proliferation by CFSE dilution; format: cell-based, human; conditions: concentrations low enough to avoid cytotoxic effects; data not shown
Experimental: as §2

Nck1-SH3.1 [2] = molecular target: T1, Nck1-SH3.1; experiment: SPR binding to immobilized Nck1-SH3.1; conditions: SPR, peptide up to 200 μM, Nck1-SH3.1 1260 RU, single titration, qualitative
Experimental: SPR experiments were conducted on a T200 Biacore instrument (GE Healthcare, Uppsala, Sweden) at 20 °C in 10 mM HEPES/NaOH, pH 7.8, 150 mM NaCl, 1 mM TCEP. […] Streptavidin is immobilized on the CAP sensor by way of double-strand DNA formation. A ssDNA is covalently coupled to the sensor surface, and a complementary DNA strand, covalently linked to streptavidin, is hybridized. To regenerate the surface, the DNA duplex is dissociated by washing with high-ionic strength solution. […] The reference channel for binding studies contained the same streptavidin-coated surface blocked with biotin.
Five replicates were performed for each CD3ϵ concentration (Table S1), whereas for the qualitative assessment of the APVA variant, only a single titration was performed.
SPR equilibrium signals were corrected for the signal in the reference channel and buffer contributions. The resulting SPR amplitudes were plotted as a function of peptide concentration, and a simple binding equation describing a Langmuir adsorption isotherm was fit to the data (GraphPad Prism) to extract the equilibrium dissociation constant Kd. (Eq. 1) RU=RUmax·[peptide]/[peptide]+Kd

| Substance | concentration at which peptides were cytotoxic (CD4 T cell) | binding to Nck1-SH3.1 by NMR (Nck1-SH3.1 [1]) | inhibition of CD4 T cell proliferation by peptides (CD4 T cell proliferation) | effect on CD8 T cell proliferation (CD8 T cell proliferation) | fold weaker binding of APVA mutant than WT CD3ϵ peptide (Nck1-SH3.1 [2]) |
| --- | --- | --- | --- | --- | --- |
| R11-G3-PKVRECPDYK(dK)PQP [11Rscr, scrambled peptide with the same composition as 11R085 but lacking the canonical PRS] | exceeding 6 μM | does not | none of the peptides inhibited CD4 T cell proliferation | did not affect CD8 T cell proliferation | – |
| RGQNKERPAPVANPDY-NH2 [APVA variant of CD3ϵ peptide] | – | – | – | – | ~10 -fold |
| R11-G3-RGYNKERPPPVPNPDY [11Rwt, R11-G3-tagged cell-penetrating CD3ϵ-derived peptide] | exceeding 6 μM | bind to Nck1-SH3.1 | none of the peptides inhibited CD4 T cell proliferation | did not affect CD8 T cell proliferation | – |
| R11-G3-Q(dK)KECPPPVPKRDY [11R085, R11-G3-tagged cell-penetrating CD3ϵ-derived peptide] | exceeding 6 μM | bind to Nck1-SH3.1 | none of the peptides inhibited CD4 T cell proliferation | did not affect CD8 T cell proliferation | – |
